The subject of the assay is test plant species. Description: Post-emergent herbicidal activity test (greenhouse, foliar spray, visual growth reduction). It is filed as in vivo. The following applies: post-emergence, 336 h, 140 g ai/ha, 14 days after application. A digest of the protocol:
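Plants grown in greenhouse (15 h photoperiod, 23-29° C day/22-28° C night) to first or second true leaf stage were sprayed overhead with compound in acetone/water/isopropanol/DMSO/crop oil/X-77 carrier at 187 L/ha. Injury was scored visually after 14 d on a 0-100% scale versus solvent-blank and untreated controls.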

Setting [1] is: ALOMY: blackgrass (Alopecurus myosuroides), read-out: Visual Growth Reduction (%) 14 Days After Application, ALOMY.
Setting [2] is: AMARE: redroot pigweed (Amaranthus retroflexus), read-out: Visual Growth Reduction (%) 14 Days After Application, AMARE.
The mark [3] stands for this setting: AVEFA: wild oat (Avena fatua), read-out: Visual Growth Reduction (%) 14 Days After Application, AVEFA.
Setting [4] is: CHEAL: lambsquarters (Chenopodium album), read-out: Visual Growth Reduction (%) 14 Days After Application, CHEAL.
Where [5] appears, read: CIRAR: canada thistle (Cirsium arvense), read-out: Visual Growth Reduction (%) 14 Days After Application, CIRAR.
Setting [6] is: CYPES: yellow nutsedge (Cyperus esculentus), read-out: Visual Growth Reduction (%) 14 Days After Application, CYPES.
Setting [7] is: DIGSA: crabgrass (Digitaria sanguinalis), read-out: Visual Growth Reduction (%) 14 Days After Application, DIGSA.
Setting [8] is: ECHCG: barnyardgrass (Echinochloa crus-galli), read-out: Visual Growth Reduction (%) 14 Days After Application, ECHCG.
[9] abbreviates: IPOHE: ivy-leaf morning glory (Ipomoea hederacea), read-out: Visual Growth Reduction (%) 14 Days After Application, IPOHE.
The mark [10] stands for this setting: KCHSC: kochia (Bassia scoparia), read-out: Visual Growth Reduction (%) 14 Days After Application, KCHSC.
The mark [11] stands for this setting: ORYSA: rice (Oryza sativa), read-out: Visual Growth Reduction (%) 14 Days After Application, ORYSA.
Where [12] appears, read: SETFA: giant foxtail (Setaria faberi), read-out: Visual Growth Reduction (%) 14 Days After Application, SETFA.
The mark [13] stands for this setting: SORVU: grain sorghum (Sorghum vulgare), read-out: Visual Growth Reduction (%) 14 Days After Application, SORVU.
The mark [14] stands for this setting: STEME: common chickweed (Stellaria media), read-out: Visual Growth Reduction (%) 14 Days After Application, STEME.
Where [15] appears, read: TRZAS: wheat, spring (Triticum aestivum), read-out: Visual Growth Reduction (%) 14 Days After Application, TRZAS.

Structures are written as SMILES. Where two headings read alike, the source gives them in different places.

For `COC(=O)c1nc(-c2ccc(C(F)(F)F)nc2)ccc1Cl` [F114, Methyl 5-chloro-6′-(trifluoromethyl)-[2,3′-bipyridine]-6-carboxylate], the pest or weed control at 140 g/ha reads like this: under setting [1], 0 to 29%; under setting [2], 0 to 29%; under setting [3], 0 to 29%; under setting [4], 0 to 29%; under setting [5], 0 to 29%; under setting [6], 0 to 29%. For the same molecule, the pest or weed control at 140 g/ha under setting [7] lay in the range of 0 to 29%; the pest or weed control at 140 g/ha under setting [8] was in the range of 0 to 29%; the pest or weed control at 140 g/ha under setting [9] lay within 30 to 44%; the pest or weed control at 140 g/ha under setting [10] was 0 to 29%; the pest or weed control at 140 g/ha under setting [11] is 0 to 29%; the pest or weed control at 140 g/ha under setting [12] fell in the range of 0 to 29%. For the same molecule, the pest or weed control at 140 g/ha is, setting by setting: under setting [13], 0 to 29%; under setting [14], 0 to 29%; under setting [15], 0 to 29%.

As for `COC(=O)c1nc(-c2ccc(Cl)c(OC)c2F)ncc1Cl` [F115, methyl 5-chloro-2-(4-chloro-2-fluoro-3-methoxyphenyl)pyrimidine-4-carboxylate], the pest or weed control at 140 g/ha lay within 0 to 29% under setting [1]; 0 to 29% under setting [2]; 0 to 29% under setting [3]; 0 to 29% under setting [4]; 60 to 74% under setting [5]; 0 to 29% under setting [6]. Besides, the pest or weed control at 140 g/ha was 0 to 29% under setting [7]; 0 to 29% under setting [8]; 30 to 44% under setting [9]; 0 to 29% under setting [11]; 0 to 29% under setting [12]; 0 to 29% under setting [13]. Besides, the pest or weed control at 140 g/ha was in the range of 0 to 29% under setting [14] and 0 to 29% under setting [15].

For `O=C(OCc1ccc(Cl)cc1Cl)c1nc(-c2ccc(C(F)(F)F)cc2Cl)ccc1Cl` [F116, 2,4-dichlorobenzyl 3-chloro-6-(2-chloro-4-(trifluoromethyl)phenyl)picolinate], the pest or weed control at 140 g/ha by setting is: under setting [1], 30 to 44%; under setting [2], 95 to 100%; under setting [3], 45 to 59%; under setting [4], 85 to 94%; under setting [5], 85 to 94%; under setting [6], 0 to 29%. In addition, the pest or weed control at 140 g/ha runs as follows: under setting [7], 85 to 94%; under setting [8], 75 to 84%; under setting [9], 85 to 94%; under setting [10], 75 to 84%; under setting [11], 0 to 29%; under setting [12], 60 to 74%. Besides, the pest or weed control at 140 g/ha was 85 to 94% under setting [13], 0 to 29% under setting [14] and 60 to 74% under setting [15].

`O=C(OCc1cccc(C(F)(F)F)c1)c1nc(-c2ccc(C(F)(F)F)cc2Cl)ccc1Cl` [F117, 3-(Trifluoromethyl) benzyl 3-chloro-6-(2-chloro-4-(trifluoromethyl)phenyl)picolinate]: the pest or weed control at 140 g/ha lay within 45 to 59% under setting [1]; 95 to 100% under setting [2]; 60 to 74% under setting [3]; 95 to 100% under setting [4]; 85 to 94% under setting [5]; 0 to 29% under setting [6]. In addition, the pest or weed control at 140 g/ha by setting is: under setting [7], 95 to 100%; under setting [8], 85 to 94%; under setting [9], 95 to 100%; under setting [10], 95 to 100%; under setting [11], 0 to 29%; under setting [12], 95 to 100%. Further, the pest or weed control at 140 g/ha lay in the range of 95 to 100% under setting [13], 0 to 29% under setting [14] and 85 to 94% under setting [15].

As to `COC(=O)c1nc(-c2c(Cl)cc(C(F)(F)F)cc2C#N)ccc1Cl` [F118, Methyl 3-chloro-6-(2-chloro-6-cyano-4-(trifluoromethyl)phenyl)picolinate], the pest or weed control at 140 g/ha under setting [1] lay within 30 to 44%; the pest or weed control at 140 g/ha under setting [2] is 95 to 100%; the pest or weed control at 140 g/ha under setting [3] is 60 to 74%; the pest or weed control at 140 g/ha under setting [4] was in the range of 95 to 100%; the pest or weed control at 140 g/ha under setting [5] is 95 to 100%; the pest or weed control at 140 g/ha under setting [6] was 45 to 59%. The pest or weed control at 140 g/ha under setting [7] lay in the range of 85 to 94%; the pest or weed control at 140 g/ha under setting [8] fell in the range of 85 to 94%; the pest or weed control at 140 g/ha under setting [9] fell in the range of 95 to 100%; the pest or weed control at 140 g/ha under setting [10] was 95 to 100%; the pest or weed control at 140 g/ha under setting [11] was 60 to 74%; the pest or weed control at 140 g/ha under setting [12] fell in the range of 60 to 74%. Further, the pest or weed control at 140 g/ha fell in the range of 85 to 94% under setting [13], 0 to 29% under setting [14] and 0 to 29% under setting [15].

As to `COC(=O)c1nc(-c2ccc(C(F)(F)F)c([S+](C)[O-])c2Cl)ccc1Cl` (centres unmarked) [F119, methyl 3-chloro-6-(2-chloro-3-(methylsulfinyl)-4-(trifluoromethyl)phenyl)picolinate], the pest or weed control at 140 g/ha runs as follows: under setting [1], 0 to 29%; under setting [2], 0 to 29%; under setting [3], 0 to 29%; under setting [4], 0 to 29%; under setting [5], 0 to 29%; under setting [6], 0 to 29%. In addition, the pest or weed control at 140 g/ha reads like this: under setting [7], 0 to 29%; under setting [8], 0 to 29%; under setting [9], 0 to 29%; under setting [10], 0 to 29%; under setting [11], 0 to 29%; under setting [12], 0 to 29%. Besides, the pest or weed control at 140 g/ha under setting [13] was in the range of 0 to 29%, the pest or weed control at 140 g/ha under setting [14] lay within 0 to 29% and the pest or weed control at 140 g/ha under setting [15] is 0 to 29%.

Turning to `COC(=O)c1nc(-c2c(Cl)cc(C(F)(F)F)cc2[S+](C)[O-])ccc1Cl` (centres unmarked) [F120, methyl 3-chloro-6-(2-chloro-6-(methylsulfinyl)-4-(trifluoromethyl)phenyl)picolinate], the pest or weed control at 140 g/ha runs as follows: under setting [1], 0 to 29%; under setting [2], 45 to 59%; under setting [3], 0 to 29%; under setting [4], 30 to 44%; under setting [5], 60 to 74%; under setting [6], 0 to 29%. The pest or weed control at 140 g/ha reads like this: under setting [7], 0 to 29%; under setting [8], 0 to 29%; under setting [9], 30 to 44%; under setting [10], 60 to 74%; under setting [11], 0 to 29%; under setting [12], 0 to 29%. In addition, the pest or weed control at 140 g/ha runs as follows: under setting [13], 0 to 29%; under setting [14], 0 to 29%; under setting [15], 0 to 29%.

Consider `COC(=O)c1nc(-c2ccc(C(F)(F)F)c(SC)c2Cl)ccc1Cl` [F121, methyl 3-chloro-6-(2-chloro-3-(methylthio)-4-(trifluoromethyl)phenyl)picolinate], for which the pest or weed control at 140 g/ha by setting is: under setting [1], 0 to 29%; under setting [2], 30 to 44%; under setting [3], 0 to 29%; under setting [4], 0 to 29%; under setting [5], 0 to 29%; under setting [6], 0 to 29%. Moreover, the pest or weed control at 140 g/ha lay in the range of 0 to 29% under setting [7]; 0 to 29% under setting [8]; 0 to 29% under setting [9]; 0 to 29% under setting [10]; 0 to 29% under setting [11]; 0 to 29% under setting [12]. Further, the pest or weed control at 140 g/ha by setting is: under setting [13], 0 to 29%; under setting [14], 0 to 29%; under setting [15], 0 to 29%.

These data come from patent US20230017045A1, “PYRIDINE AND PYRIMIDINE CARBOXYLATE HERBICIDES AND METHODS OF USE THEREOF” (Dow AgroSciences LLC, priority 2017, published 2023).
